Converted amounts (≈) assume the structure as drawn. Where two headings read alike, the source gives them in different places.
Legend:
Ser. marcescens, 10100 = assay: Antimicrobial activity MIC, standard method of Japanese Society of Chemotherapy; type: cell-based
Procedure: (§1) The antimicrobial activity of the compounds of the present invention is measured in accordance with the standard method designated by Japanese Society of Chemotherapy and MIC (microgram/ml) values are shown as its results in Table 1.

E. coli, NIHJ = assay: as above; type: cell-based
Procedure: as §1

S. epidermidis, 56500 = assay: as above; type: cell-based
Procedure: as §1

[1] = system: Str. faecalis, ATCC-19433; assay: as above; type: cell-based
Procedure: as §1

S. aureus, 870307 = assay: as above; type: cell-based
Procedure: as §1

Str. pneumoniae, J24 = assay: as above; type: cell-based
Procedure: as §1

S. aureus, 209P = assay: as above; type: cell-based
Procedure: as §1

S. maltophilia, IID-1275 = assay: as above; type: cell-based
Procedure: as §1

Str. pyogenes, G-36 = assay: as above; type: cell-based
Procedure: as §1

Ps. aeruginosa, 32104 = assay: as above; type: cell-based
Procedure: as §1

S. flexneri, 2A 5503 = assay: as above; type: cell-based
Procedure: as §1

K. pneumoniae, Type I = assay: as above; type: cell-based
Procedure: as §1

Ps. aeruginosa, 32121 = assay: as above; type: cell-based
Procedure: as §1

Pr. vulgalis, 08601 = assay: as above; type: cell-based
Procedure: as §1

Slc:ddY male mice = assay: Single intravenous dosing toxicity test in mice; type: in vivo; settings: single intravenous dose 150 mg/kg, six-week-old Slc:ddY male mice
Procedure: The single intravenous dosing toxicity test in mice using the invention compound was carried out in the following manner. The compound was dissolved in and diluted with 0.1 mol/l NaOH/physiological saline. After the diluted solution was sterilized by filtration through a 0.22 μm filter of Millex GS, the resulting sterilized solution was intravenously administered to six-week-old Slc:ddY male mice at an administration rate of 10 ml/kg or 0.2 ml/min as a single dose. Similar to Test 1, the compound obtained in Example 2 of Patent Document 2 was employed as a comparative compound.

[2] = Serratia marcescens, 10100, Ser. marcescens, read-out: MIC
[3] = Staphylococcus epidermidis, 56500, S. epidermidis, read-out: MIC
[4] = Enterococcus faecalis, ATCC19433, Str. faecalis, read-out: MIC
[5] = Streptococcus pneumoniae, J24, Str. pneumoniae, read-out: MIC
[6] = Staphylococcus aureus, read-out: MIC
[7] = Stenotrophomonas maltophilia, IID1275, S. maltophilia, read-out: MIC
[8] = Pseudomonas aeruginosa, 32104, Ps. aeruginosa, read-out: MIC
[9] = Klebsiella pneumoniae, read-out: MIC
[10] = Pseudomonas aeruginosa, 32121, Ps. aeruginosa, read-out: MIC
[11] = Escherichia coli, read-out: MIC
[12] = Staphylococcus aureus, 870307, S. aureus, read-out: MIC
[13] = Streptococcus pyogenes, G36, Str. pyogenes, read-out: MIC
[14] = Shigella flexneri, 2A5503, S. flexneri, read-out: MIC
[15] = Ps. aeruginosa, listed as Ex. 3

C[C@H]1COc2c(N3CC(N)C(C(F)F)C3)c(F)cc3c(=O)c(C(=O)O)cn1c23 (single isomer, unassigned) [Example 2]
MIC (Ser. marcescens, 10100; [2]): 0.05 µg/mL (≈ 0.126 µM)
MIC (E. coli, NIHJ; listed as Ex. 2): ≦0.003 microgram/ml
MIC (S. epidermidis, 56500; [3]): 0.1 µg/mL (≈ 0.252 µM)
MIC [1, 4]: 0.39 µg/mL (≈ 0.981 µM)
MIC (S. aureus, 870307; S. aureus, listed as Ex. 2): 1.56 microgram/ml
MIC (Str. pneumoniae, J24; [5]): 0.2 µg/mL (≈ 0.503 µM)
MIC (S. aureus, 209P; [6]): 0.025 µg/mL (≈ 0.0629 µM)
MIC (S. maltophilia, IID-1275; [7]): 0.2 µg/mL (≈ 0.503 µM)
MIC (Str. pyogenes, G-36; Str. pyogenes, listed as Ex. 2): 0.2 microgram/ml
MIC (Ps. aeruginosa, 32104; [8]): 0.2 µg/mL (≈ 0.503 µM)
MIC (S. flexneri, 2A 5503; S. flexneri, listed as Ex. 2): 0.012 microgram/ml
MIC (K. pneumoniae, Type I; [9]): 0.05 µg/mL (≈ 0.126 µM)
MIC (Ps. aeruginosa, 32121; [10]): 0.05 µg/mL (≈ 0.126 µM)
MIC (Pr. vulgalis, 08601; listed as Ex. 2): 0.012 microgram/ml
melting point: 247 to 252 °C

C[C@H]1COc2c(N3C[C@H](CF)[C@H](N)C3)c(F)cc3c(=O)c(C(=O)O)cn1c23 [Example 1, 10-[3-(S)-Amino-4-(S)-fluoromethylpyrrolidin-1-yl]-9-fluoro-2,3-dihydro-3-(S)-methyl-7-oxo-7H-pyridol-[1,2,3-de][1,4]benzoxazine-6-carboxylic acid]
MIC (Ser. marcescens, 10100; [2]): 0.05 µg/mL (≈ 0.132 µM)
MIC (E. coli, NIHJ; [11]): 0.006 µg/mL (≈ 0.0158 µM)
MIC (S. epidermidis, 56500; [3]): 0.1 µg/mL (≈ 0.264 µM)
MIC [1, 4]: 0.2 µg/mL (≈ 0.527 µM)
MIC (S. aureus, 870307; [12]): 1.56 µg/mL (≈ 4.11 µM)
MIC (Str. pneumoniae, J24; [5]): 0.1 µg/mL (≈ 0.264 µM)
MIC (S. aureus, 209P; [6]): 0.025 µg/mL (≈ 0.0659 µM)
MIC (S. maltophilia, IID-1275; [7]): 0.39 µg/mL (≈ 1.03 µM)
MIC (Str. pyogenes, G-36; [13]): 0.2 µg/mL (≈ 0.527 µM)
MIC (Ps. aeruginosa, 32104; [8]): 0.1 µg/mL (≈ 0.264 µM)
MIC (S. flexneri, 2A 5503; [14]): 0.012 µg/mL (≈ 0.0316 µM)
MIC (K. pneumoniae, Type I; [9]): 0.05 µg/mL (≈ 0.132 µM)
MIC (Ps. aeruginosa, 32121; [10]): 0.025 µg/mL (≈ 0.0659 µM)
MIC (Pr. vulgalis, 08601; read-out: MIC): 0.012 µg/mL (≈ 0.0316 µM)
Number of deaths/total number (Slc:ddY male mice): 0/5

O=C(O)c1cn(C2CC2)c2cc(N3CCNCC3)c(F)cc2c1=O [CPFX, ciprofloxacin, reference compound]
MIC (Ser. marcescens, 10100; [2]): 0.025 µg/mL (≈ 0.0754 µM)
MIC (E. coli, NIHJ; [11]): ≤ 0.003 µg/mL
MIC (S. epidermidis, 56500; [3]): 0.2 µg/mL (≈ 0.604 µM)
MIC [1, 4]: 0.78 µg/mL (≈ 2.35 µM)
MIC (S. aureus, 870307; [12]): 3.13 µg/mL (≈ 9.45 µM)
MIC (Str. pneumoniae, J24; [5]): 0.1 µg/mL (≈ 0.302 µM)
MIC (S. aureus, 209P; [6]): 0.1 µg/mL (≈ 0.302 µM)
MIC (S. maltophilia, IID-1275; [7]): 0.78 µg/mL (≈ 2.35 µM)
MIC (Str. pyogenes, G-36; [13]): 1.56 µg/mL (≈ 4.71 µM)
MIC (Ps. aeruginosa, 32104; [8]): 0.005 µg/mL (≈ 0.0151 µM)
MIC (S. flexneri, 2A 5503; [14]): 0.006 µg/mL (≈ 0.0181 µM)
MIC (K. pneumoniae, Type I; [9]): 0.025 µg/mL (≈ 0.0754 µM)
MIC (Ps. aeruginosa, 32121; [10]): 0.025 µg/mL (≈ 0.0754 µM)
MIC (Pr. vulgalis, 08601; read-out: MIC): ≤ 0.003 µg/mL

C[C@H]1COc2c(N3CC(N)C(C(F)F)C3)c(F)cc3c(=O)c(C(=O)O)cn1c23 (single isomer, unassigned) [Example 3]
MIC (Ser. marcescens, 10100; Ser. marcescens, listed as Ex. 3): 0.1 microgram/ml
MIC (E. coli, NIHJ; listed as Ex. 3): 0.012 microgram/ml
MIC (S. epidermidis, 56500; S. epidermidis, listed as Ex. 3): 0.2 microgram/ml
MIC ([1]; Str. faecalis, listed as Ex. 3): 0.78 microgram/ml
MIC (S. aureus, 870307; S. aureus, listed as Ex. 3): 3.13 microgram/ml
MIC (Str. pneumoniae, J24; Str. pneumoniae, listed as Ex. 3): 0.39 microgram/ml
MIC (S. aureus, 209P; listed as Ex. 3): 0.05 microgram/ml
MIC (S. maltophilia, IID-1275; S. maltophilia, listed as Ex. 3): 0.39 microgram/ml
MIC (Str. pyogenes, G-36; Str. pyogenes, listed as Ex. 3): 0.78 microgram/ml
MIC (Ps. aeruginosa, 32104; [15]): 0.39 microgram/ml
MIC (S. flexneri, 2A 5503; S. flexneri, listed as Ex. 3): 0.025 microgram/ml
MIC (K. pneumoniae, Type I; listed as Ex. 3): 0.1 microgram/ml
MIC (Ps. aeruginosa, 32121; [15]): 0.1 microgram/ml
MIC (Pr. vulgalis, 08601; listed as Ex. 3): 0.025 microgram/ml
melting point: 264 to 268 °C

COc1c(N2C[C@H](CF)[C@H](N)C2)c(F)cc2c(=O)c(C(=O)O)cn(C3CC3)c12 [Comparative Compound, reference compound]
MIC (Ser. marcescens, 10100; [2]): 0.05 µg/mL (≈ 0.127 µM)
MIC (E. coli, NIHJ; [11]): ≤ 0.003 µg/mL
MIC (S. epidermidis, 56500; [3]): 0.05 µg/mL (≈ 0.127 µM)
MIC [1, 4]: 0.1 µg/mL (≈ 0.254 µM)
MIC (S. aureus, 870307; [12]): 0.39 µg/mL (≈ 0.991 µM)
MIC (Str. pneumoniae, J24; [5]): 0.025 µg/mL (≈ 0.0636 µM)
MIC (S. aureus, 209P; [6]): 0.012 µg/mL (≈ 0.0305 µM)
MIC (S. maltophilia, IID-1275; [7]): 0.05 µg/mL (≈ 0.127 µM)
MIC (Str. pyogenes, G-36; [13]): 0.1 µg/mL (≈ 0.254 µM)
MIC (Ps. aeruginosa, 32104; [8]): 0.2 µg/mL (≈ 0.508 µM)
MIC (S. flexneri, 2A 5503; [14]): 0.006 µg/mL (≈ 0.0153 µM)
MIC (K. pneumoniae, Type I; [9]): 0.025 µg/mL (≈ 0.0636 µM)
MIC (Ps. aeruginosa, 32121; [10]): 0.05 µg/mL (≈ 0.127 µM)
MIC (Pr. vulgalis, 08601; read-out: MIC): 0.006 µg/mL (≈ 0.0153 µM)
Number of deaths/total number (Slc:ddY male mice; 150 mg/kg): 3/5
Number of deaths/total number (Slc:ddY male mice; listed as comparative compound, 150 mg/kg): three of five mice died

C[C@H]1COc2c(N3CCN(C)CC3)c(F)cc3c(=O)c(C(=O)O)cn1c23 [LVFX, levofloxacin, reference compound]
MIC (Ser. marcescens, 10100; [2]): 0.1 µg/mL (≈ 0.277 µM)
MIC (E. coli, NIHJ; [11]): 0.12 µg/mL (≈ 0.332 µM)
MIC (S. epidermidis, 56500; [3]): 0.39 µg/mL (≈ 1.08 µM)
MIC [1, 4]: 0.78 µg/mL (≈ 2.16 µM)
MIC (S. aureus, 870307; [12]): > 6.25 µg/mL
MIC (Str. pneumoniae, J24; [5]): 0.78 µg/mL (≈ 2.16 µM)
MIC (S. aureus, 209P; [6]): 0.2 µg/mL (≈ 0.553 µM)
MIC (S. maltophilia, IID-1275; [7]): 0.39 µg/mL (≈ 1.08 µM)
MIC (Str. pyogenes, G-36; [13]): 0.2 µg/mL (≈ 0.553 µM)
MIC (Ps. aeruginosa, 32104; [8]): 0.2 µg/mL (≈ 0.553 µM)
MIC (S. flexneri, 2A 5503; [14]): 0.025 µg/mL (≈ 0.0692 µM)
MIC (K. pneumoniae, Type I; [9]): 0.1 µg/mL (≈ 0.277 µM)
MIC (Ps. aeruginosa, 32121; [10]): 0.1 µg/mL (≈ 0.277 µM)
MIC (Pr. vulgalis, 08601; read-out: MIC): 0.012 µg/mL (≈ 0.0332 µM)

Source: US20070191356A1, “Pyridobenzoxazine derivative” (priority 2004, published 2007)
